Source: ChEMBL document CHEMBL1132084, “Thrombin inhibitors based on a propargylglycine template” (Bioorg Med Chem Lett, 1999)
Each block holds one molecule with its values, some of them ahead of it.

Assays:
Prothrombin = Prothrombin (Homo sapiens, UniProt P00734); assay: Inhibition of human thrombin
Serine protease 1 = biological target: T1, Serine protease 1 (Bos taurus, UniProt P00760); assay: Inhibitory activity against bovine trypsin
T1 sequence (P00760 whole entry): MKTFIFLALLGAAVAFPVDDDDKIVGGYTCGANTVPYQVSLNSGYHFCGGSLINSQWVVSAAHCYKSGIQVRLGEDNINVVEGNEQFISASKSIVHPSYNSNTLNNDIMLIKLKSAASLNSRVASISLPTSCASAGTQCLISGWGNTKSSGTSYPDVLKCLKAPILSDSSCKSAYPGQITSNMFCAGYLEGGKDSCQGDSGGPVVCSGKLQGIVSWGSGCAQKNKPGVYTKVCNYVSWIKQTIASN

Plasminogen = Plasminogen (Homo sapiens, UniProt P00747); assay: Inhibitory activity against plasmin
Plasminogen, sequence (P00747 97-580 limits assumed): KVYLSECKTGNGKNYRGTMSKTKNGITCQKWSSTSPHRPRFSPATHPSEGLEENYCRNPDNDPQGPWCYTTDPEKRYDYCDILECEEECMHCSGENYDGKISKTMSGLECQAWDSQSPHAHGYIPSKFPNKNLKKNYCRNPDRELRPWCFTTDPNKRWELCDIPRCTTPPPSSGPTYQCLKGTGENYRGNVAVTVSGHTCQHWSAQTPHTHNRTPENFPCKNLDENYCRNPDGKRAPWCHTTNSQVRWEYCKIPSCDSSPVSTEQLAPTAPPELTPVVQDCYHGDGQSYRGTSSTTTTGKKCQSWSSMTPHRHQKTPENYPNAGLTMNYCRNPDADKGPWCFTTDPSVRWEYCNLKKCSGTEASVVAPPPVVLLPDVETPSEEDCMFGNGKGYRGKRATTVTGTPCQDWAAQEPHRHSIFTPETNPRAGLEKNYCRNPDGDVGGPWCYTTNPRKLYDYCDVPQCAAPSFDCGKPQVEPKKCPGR
Plasminogen, sequence (P00747 581-810 limits assumed): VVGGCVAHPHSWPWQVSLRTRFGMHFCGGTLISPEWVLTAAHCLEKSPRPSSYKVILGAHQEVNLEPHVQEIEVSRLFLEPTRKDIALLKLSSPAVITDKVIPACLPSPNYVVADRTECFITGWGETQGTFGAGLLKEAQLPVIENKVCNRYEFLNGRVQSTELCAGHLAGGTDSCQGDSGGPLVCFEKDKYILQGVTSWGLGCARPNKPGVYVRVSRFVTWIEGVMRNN

Coagulation factor X = Coagulation factor X (Homo sapiens, UniProt P00742); assay: Inhibitory activity against factor Xa
Coagulation factor X, sequence (P00742 41-179 limits assumed): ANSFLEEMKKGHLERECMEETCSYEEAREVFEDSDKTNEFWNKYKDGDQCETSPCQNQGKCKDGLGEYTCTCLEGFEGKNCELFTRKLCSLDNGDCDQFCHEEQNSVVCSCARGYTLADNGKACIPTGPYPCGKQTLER
Coagulation factor X, sequence (P00742 235-488 limits assumed): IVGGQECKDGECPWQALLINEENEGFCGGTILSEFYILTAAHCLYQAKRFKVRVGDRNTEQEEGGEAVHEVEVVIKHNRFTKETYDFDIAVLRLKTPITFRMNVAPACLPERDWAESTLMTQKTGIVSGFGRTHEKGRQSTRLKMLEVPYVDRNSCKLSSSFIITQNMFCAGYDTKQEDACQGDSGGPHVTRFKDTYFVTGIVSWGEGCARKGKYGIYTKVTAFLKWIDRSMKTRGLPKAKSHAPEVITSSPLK

[1] = biological target: Tissue-type plasminogen activator (Homo sapiens, UniProt P00750); assay: Inhibitory activity against tissue type plasminogen activator (t-PA)
Tissue-type plasminogen activator, sequence (P00750 whole entry): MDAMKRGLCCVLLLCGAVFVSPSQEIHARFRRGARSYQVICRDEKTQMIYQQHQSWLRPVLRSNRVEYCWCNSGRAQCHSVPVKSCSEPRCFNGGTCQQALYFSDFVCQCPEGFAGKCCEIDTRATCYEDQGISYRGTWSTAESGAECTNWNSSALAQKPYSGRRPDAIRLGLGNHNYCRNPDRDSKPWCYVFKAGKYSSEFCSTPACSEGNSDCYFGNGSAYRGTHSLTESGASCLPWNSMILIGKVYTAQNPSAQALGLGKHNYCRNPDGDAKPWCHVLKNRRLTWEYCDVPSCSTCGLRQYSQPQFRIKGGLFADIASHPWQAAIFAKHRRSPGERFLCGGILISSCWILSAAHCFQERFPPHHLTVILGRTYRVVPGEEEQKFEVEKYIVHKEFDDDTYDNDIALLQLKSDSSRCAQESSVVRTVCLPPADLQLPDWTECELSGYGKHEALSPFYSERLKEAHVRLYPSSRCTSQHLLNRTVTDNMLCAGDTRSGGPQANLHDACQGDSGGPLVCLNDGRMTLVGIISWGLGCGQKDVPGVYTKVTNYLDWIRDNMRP

[2] = Tmax at a dose of 30 mg/kg in rat; format: ADME, organism-based; design: dose 30 mg/kg; details: in vivo
[3] = Cmax at a dose of […] mg/kg in rat; format: ADME, organism-based; details: in vivo, 30 mg/kg
[4] = Area under was determined at a dose of 30 mg/kg; format: ADME, organism-based; design: dose 30 mg/kg; details: in vivo

Structure (SMILES): CNc1ncc(C#CC[C@H](NS(=O)(=O)c2ccc3ccccc3c2)C(=O)N(C)C2CCCC2)cn1
Ki (Prothrombin): 3.5 µM

Structure (SMILES): CN(C(=O)[C@H](CC#Cc1ccncc1)NS(=O)(=O)c1ccc2ccccc2c1)C1CCCC1
Ki (Prothrombin): > 20 µM

Structure (SMILES): CN(C(=O)[C@H](CC#Cc1cnc(N)s1)NS(=O)(=O)c1ccc2ccccc2c1)C1CCCC1
Ki (Prothrombin): 4.5 µM

Structure (SMILES): CNc1ccc(C#CC[C@H](NS(=O)(=O)c2ccc3ccccc3c2)C(=O)N(C)C2CCCC2)cc1
Ki (Serine protease 1): 37 µM | Ki (Plasminogen): > 200 µM | Ki (Coagulation factor X): 8.7 µM | Ki (Prothrombin): 0.019 µM | Ki [1]: > 200 µM

Structure (SMILES): CCCc1ccc(S(=O)(=O)N[C@@H](CC#Cc2ccc(NC)cc2)C(=O)N(C)C2CCCC2)cc1
Ki (Serine protease 1): > 30 µM | Ki (Plasminogen): > 200 µM | Ki (Coagulation factor X): 6.6 µM | Ki (Prothrombin): 0.008 µM | Ki [1]: 190 µM

Structure (SMILES): CCNc1ccc(C#CC[C@H](NS(=O)(=O)c2ccc3ccccc3c2)C(=O)N(C)C2CCCC2)cc1
Ki (Prothrombin): 49 µM

Structure (SMILES): CNc1ccc(C#CC[C@H](NS(=O)(=O)c2ccc3c(c2)CCCC3)C(=O)N(C)C2CCCC2)cc1
Tmax [2]: 45 min | Ki (Serine protease 1): > 30 µM | Cmax [3]: 1800 nM | Ki (Plasminogen): > 200 µM | AUC [4]: 4.6 µM·h | Ki (Coagulation factor X): 1.9 µM | Ki (Prothrombin): 0.005 µM | Ki [1]: 200 µM

Structure (SMILES): CN(C(=O)[C@H](CC#Cc1cnc(N)nc1)NS(=O)(=O)c1ccc2ccccc2c1)C1CCCC1
Ki (Prothrombin): > 20 µM

Structure (SMILES): CNc1ccc(C#CC[C@H](NS(=O)(=O)c2ccc3cc(OC)ccc3c2)C(=O)N(C)C2CCCC2)cc1
Ki (Serine protease 1): > 30 µM | Ki (Plasminogen): > 200 µM | Ki (Coagulation factor X): 14 µM | Ki (Prothrombin): 0.027 µM | Ki [1]: > 200 µM

Other lines, results leading:

Ki (Prothrombin): 0.22 µM
Structure (SMILES): CN(C(=O)[C@H](CC#Cc1ccc(N)c(N)c1)NS(=O)(=O)c1ccc2ccccc2c1)C1CCCC1

Ki (Prothrombin): 3.4 µM
Structure (SMILES): CN(C(=O)[C@H](CC#Cc1ccc(CN)cc1)NS(=O)(=O)c1ccc2ccccc2c1)C1CCCC1

Ki (Prothrombin): 2.5 µM
Structure (SMILES): CN(C(=O)[C@H](CC#Cc1cccnc1)NS(=O)(=O)c1ccc2ccccc2c1)C1CCCC1

Ki (Serine protease 1): 32 µM | Ki (Prothrombin): 0.04 µM
Structure (SMILES): CNc1ccc(C#CC[C@H](NS(=O)(=O)c2ccc3ccccc3c2)C(=O)N(C)C2CCCC2)cc1N

Ki (Prothrombin): 1.5 µM
Structure (SMILES): CN(C(=O)[C@H](CC#Cc1ccc(N)nc1)NS(=O)(=O)c1ccc2ccccc2c1)C1CCCC1

Ki (Prothrombin): 3 µM
Structure (SMILES): CN(C(=O)[C@H](CC#Cc1cnc[nH]1)NS(=O)(=O)c1ccc2ccccc2c1)C1CCCC1

Ki (Prothrombin): 2.2 µM
Structure (SMILES): CN(C(=O)[C@H](CC#Cc1cccc(N)c1)NS(=O)(=O)c1ccc2ccccc2c1)C1CCCC1

Ki (Prothrombin): 1.5 µM
Structure (SMILES): CN(C(=O)[C@H](CC#Cc1ccc(NN)cc1)NS(=O)(=O)c1ccc2ccccc2c1)C1CCCC1

Ki (Prothrombin): 0.3 µM
Structure (SMILES): CNc1ccc(C#CC[C@H](NS(=O)(=O)c2ccc3ccccc3c2)C(=O)N(C)C2CCCC2)cn1

Ki (Prothrombin): 0.29 µM
Structure (SMILES): CN(C(=O)[C@H](CC#Cc1ccc(N)cc1)NS(=O)(=O)c1ccc2ccccc2c1)C1CCCC1
